For data set [1] the following is noted: cited from earlier work.
On the set-up of data set [2]: method as in earlier work. The following applies: cited from earlier work.
Details of data set [3]: method as in earlier work. To be noted: measured; cited from earlier work.
Data set [4] has as its system OAT1. To be noted: cited from earlier work.
The target of data set [5] is T1, OAT1 (Homo sapiens, UniProt Q4U2R8).
T1 sequence (Q4U2R8 1-563): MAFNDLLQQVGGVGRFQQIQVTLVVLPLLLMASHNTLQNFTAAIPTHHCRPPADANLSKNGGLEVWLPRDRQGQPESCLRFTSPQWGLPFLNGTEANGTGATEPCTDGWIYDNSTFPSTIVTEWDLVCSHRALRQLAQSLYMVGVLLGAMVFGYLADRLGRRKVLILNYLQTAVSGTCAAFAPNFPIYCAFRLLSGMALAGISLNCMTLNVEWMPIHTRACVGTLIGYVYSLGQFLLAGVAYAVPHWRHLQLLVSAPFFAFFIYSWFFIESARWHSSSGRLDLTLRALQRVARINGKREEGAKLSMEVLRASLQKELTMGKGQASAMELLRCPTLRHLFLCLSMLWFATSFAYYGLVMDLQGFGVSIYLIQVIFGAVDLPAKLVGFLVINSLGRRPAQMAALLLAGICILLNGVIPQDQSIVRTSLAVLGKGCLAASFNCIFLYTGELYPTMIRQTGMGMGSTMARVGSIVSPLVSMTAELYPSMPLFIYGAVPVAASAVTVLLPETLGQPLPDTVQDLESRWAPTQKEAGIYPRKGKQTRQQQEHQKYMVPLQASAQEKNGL
Briefly: Telmisartan pre-incubation and washout recovery of [3H]PAH uptake in CHO-OAT1 cells.

Data set [6] concerns the target T1, OAT1. The experiment in a line: Inhibition of [3H]PAH uptake into CHO-OAT1 cells (IC50 determination). To be noted: IC50 for inhibition of [3H]PAH uptake, [3H]PAH 20 nM, mean ± SEM, n=4.
Experimental: All cells were grown to confluence in 24-well flat bottom plates for transport experiments.
Transport experiments involved aspirating the media, rinsing the cells quickly once with WB (0.4 mL), and then adding the transport solution (0.4 mL) to the wells for an amount of time as indicated in the figure legends. Uptake was stopped by aspirating the transport buffer and rinsing the wells three times with ice-cold WB (0.4 mL). The cells were lysed in 0.5 N NaOH/1% sodium dodecyl sulfate (0.4 mL) for 30 min on an orbital shaker and the lysates neutralized with 1 N HCl (0.2 mL). […] Several wells not used for transport were used for determining the number of cells per well with a hemocytometer.
As above, transport inhibition experiments involved aspirating the media, rinsing the cells quickly once with WB (0.4 mL), and then adding the transport solution (0.4 mL) to the wells for an amount of time as indicated in the figure legends.
[I] is the concentration of inhibitor in the transport solution. […] Japp is the apparent maximal transport rate, and C has the same meaning as noted above.

The structures appear in SMILES notation.

With `Nc1ccc(C(=O)NCC(=O)O)cc1` [PAH, Para-aminohippurate], the “Clinically-observed plasma clearance (CLi.v.)” value in data set [1] (10 mg ∙ kg-1 intravenous dose) was 40.6 L/h. In addition, in data set [1], the “Observed Vss” value was 0.23 L/kg and the “Percentage of the dose excreted into the urine as acetyl-PAH” value was ~ 10%. In addition, the “Reduction in plasma clearance of PAH by co-administered probenecid” value in data set [1] (human subjects, probenecid 1 g oral dose) was 1.8 fold. Further, in data set [2], the lipophilicity (LogP) is given as -2.2 and the pKa was 3.83. Moreover, in data set [3], the “Fraction unbound in plasma (fup)” value is recorded as 0.83.

`CCCc1nc2c(C)cc(-c3nc4ccccc4n3C)cc2n1Cc1ccc(-c2ccccc2C(=O)O)cc1` [Telmisartan, telmisartan]: the “Inhibition mechanism at OAT1” value with OAT1 [4] was “non-competitive”. Also, at OAT1 [5] (30 min pre-treatment with telmisartan 0.5 µM, washout in WB with 10% FBS, single experiment), the “Reversibility of OAT1 inhibition after washout” value is reported as “reversible, albeit slowly”. Further, the “Effect of pre-incubation time on OAT1 transport activity” value on OAT1 [5] (telmisartan 10, 50, 100 or 200 nM, pre-incubation 1, 5, 10 or 30 min, [3H]PAH uptake 15 s) is recorded as “decreased with increasing pre-incubation times”. For the same compound, the figures for the half-inhibitory concentration (IC50) against OAT1 [6] (15 sec incubation) and on OAT1 [6] (10 min incubation) were 0.4 ± 0.07 µM and 0.06 ± 0.02 µM, respectively.

Take `COc1ccc2c(c1)c(CC(=O)O)c(C)n2C(=O)c1ccc(Cl)cc1` [Indomethacin, indomethacin]: in the data set with OAT1 [4], the “Inhibition mechanism at OAT1” value is “competitive”.

For the compound `COc1ccc2[nH]c([S+]([O-])Cc3ncc(C)c(OC)c3C)nc2c1` (stereo not shown) [Omeprazole, omeprazole], in the data set with OAT1 [4], the “Inhibition mechanism at OAT1” value is reported as “mixed-type”. In addition, the IC50 on OAT1 [6] (15 sec incubation) was 9.7 ± 0.8 µM; against OAT1 [6] (10 min incubation), 9.2 ± 0.8 µM.

One may read the LogP as the decadic logarithm of the partition coefficient of the neutral form, usually between octanol and water. As a reminder, the pKa is the negative logarithm of the acid dissociation constant. The IC50 is the concentration needed to halve the response being measured. High values mean lower potency, low ones higher potency.

The values are drawn from paper PMC10204490, “Incubation Time Influences Organic Anion Transporter 1 Kinetics and Renal Clearance Predictions” (Journal of Xenobiotics, 2023).
